Test results as given in the supplement of paper PMC10883282.

Tests used:
Experiment in all cases: relative viability vs DMSO control (72 h) (fraction); higher = more viable cells
SW684 = tested on: SW684
Procedure, shortened: (§1)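 Sarcoma cell lines were seeded in 384-well plates at densities set to reach 80–90% confluence. After 24 h, 2.5 µl of serially diluted compound was added (source plates 10 mM to 0.0002 mM), and plates were held 72 h at 37 °C, 5% CO2, with 0.1% DMSO vehicle and a 5 µM positive control. Relative viability came from ATPLite readings as percent growth, averaged over up to triplicate wells. Data were rescaled so full viability equals 1 and none equals 0.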

KHOS-NP = tested on: KHOS-NP
Procedure, shortened: as §1

SW872 = tested on: SW872
Procedure, shortened: as §1

A204 = tested on: A204
Procedure, shortened: as §1

HS729 = tested on: HS729
Procedure, shortened: as §1

CCN1C(=O)N(c2c(F)c(OC)cc(OC)c2F)Cc2cnc3[nH]c(CN4CCOCC4)cc3c21 [Pemigatinib]
relative viability
Conditions	A204	HS729	KHOS-NP	SW684	SW872
0.00017 µM	1.04	1	1.09	1.1	1.02
0.00051 µM	1.02	0.95	1.06	1.12	1.01
0.00152 µM	0.98	0.912	1.088	1.13	1
0.00457 µM	0.991	0.92	1.088	1.07	1.02
0.01372 µM	0.843	0.843	1.055	1.12	0.999
0.04115 µM	0.709	0.751	1.065	1.07	0.999
0.1235 µM	0.599	0.644	1.07	1.05	0.964
0.3704 µM	0.565	0.622	1.05	1.13	0.975
1.111 µM	0.516	0.544	1.06	1.1	0.911
3.333 µM	0.379	0.484	1.08	0.971	0.739
10 µM	0.333	0.444	1.05	0.802	0.713

COc1cc(OC)c(/C=C/S(=O)(=O)Cc2ccc(OC)c(NCC(=O)O)c2)c(OC)c1 [Rigosertib]
relative viability
Conditions	A204	HS729	KHOS-NP	SW684	SW872
0.00017 µM	1.08	0.973	1.09	1.14	1.04
0.00051 µM	1.06	0.989	1.09	1.2	1.05
0.00152 µM	1.08	0.934	1.1	1.15	1.05
0.00457 µM	1.0898	0.938	1.11	1.19	1.06
0.01372 µM	1.09	1.02	1.1	1.19	1.045
0.04115 µM	1.07	0.966	1.11	1.15	1.06
0.1235 µM	1.01	0.928	1.08	1.02	1.019
0.3704 µM	0.672	0.85	0.704	0.73	0.927
1.111 µM	0.398	0.625	0.478	0.681	0.515
3.333 µM	0.319	0.579	0.414	0.713	0.479
10 µM	0.248	0.517	0.357	0.756	0.477

COCCNc1cc(NC(=O)N2CCCc3cc(CN4CCN(C)CC4=O)c(C=O)nc32)ncc1C#N [Roblitinib]
relative viability
Conditions	A204	HS729	KHOS-NP	SW684	SW872
0.00017 µM	1.05	0.894	1.05	1.1	0.926
0.00051 µM	1.09	0.906	1.03	1.09	0.924
0.00152 µM	1.03	0.906	1.04	1.08	0.968
0.00457 µM	1.08	0.894	1.04	1.03	0.951
0.01372 µM	1.06	0.891	1.05	1.04	0.939
0.04115 µM	1.07	0.876	1.04	1.05	0.963
0.1235 µM	1.04	0.858	1.06	1.09	0.921
0.3704 µM	1.02	0.858	1.05	1.08	0.977
1.111 µM	1.03	0.849	1.05	1.13	0.9644
3.333 µM	0.922	0.892	1.04	1.09	0.974
10 µM	0.812	0.914	1.02	1.02	0.988

Cc1cc2cc(Oc3ccnc(Nc4cccc(CS(=O)(=O)NCCN(C)C)c4)n3)ccc2[nH]1 [Sulfatinib]
relative viability
Conditions	A204	HS729	KHOS-NP	SW684	SW872
0.00017 µM	1.09	0.983	1.05	1.11	1.02
0.00051 µM	1.08	0.993	1.05	1.09	1.05
0.00152 µM	1.08	0.979	1.03	1.09	1.02
0.00457 µM	1.05	0.9	1.006	1.12	1.02
0.01372 µM	1.07	0.939	1.03	1.08	1
0.04115 µM	1.02	0.872	1.019	1.07	0.996
0.1235 µM	1.01	0.877	1.04	1.04	1.02
0.3704 µM	0.878	0.843	1.026	1.1	1.02
1.111 µM	0.536	0.768	1.01	1.05	0.973
3.333 µM	0.283	0.629	1.01	0.995	0.88
10 µM	0.136	0.49	0.963	0.555	0.526

CCN(CC)CCNC(=O)c1c(C)[nH]c(/C=C2\C(=O)Nc3ccc(F)cc32)c1C [Sunitinib]
relative viability
Conditions	A204	HS729	KHOS-NP	SW684	SW872
0.00017 µM	1.06	0.928	1.04	1.17	1.04
0.00051 µM	1.03	0.877	1.06	1.16	1.05
0.00152 µM	1.01	0.835	1.05	1.18	1.03
0.00457 µM	0.96	0.819	1.05	1.15	1.03
0.01372 µM	0.795	0.799	1.06	1.144	1.04
0.04115 µM	0.516	0.761	1.047	1.17	1.02
0.1235 µM	0.425	0.731	1.069	1.181	0.993
0.3704 µM	0.363	0.68	1.065	1.07	0.81
1.111 µM	0.318	0.518	0.973	0.871	0.587
3.333 µM	0.206	0.268	0.381	0.609	0.416
10 µM	0.00297	0.0045	0.0257	0.001	-0.00493

Cn1ncnc1[C@H]1c2n[nH]c(=O)c3cc(F)cc(c23)N[C@@H]1c1ccc(F)cc1 [Talazoparib]
relative viability
Conditions	A204	HS729	KHOS-NP	SW684	SW872
0.00017 µM	0.9664	1.05	1.02	0.965	1.02
0.00051 µM	0.987	1.05	1.04	1.01	1.04
0.00152 µM	0.963	1.03	1.03	0.988	1.04
0.00457 µM	0.932	1.02	1.04	1.05	1.01
0.01372 µM	0.906	1.02	1.02	0.986	0.99
0.04115 µM	0.846	1.03	1.01	0.969	0.971
0.1235 µM	0.715	0.961	1	0.963	0.905
0.3704 µM	0.674	0.949	0.968	0.932	0.799
1.111 µM	0.576	0.895	0.837	0.893	0.628
3.333 µM	0.519	0.8536	0.675	0.875	0.441
10 µM	0.399	0.812	0.607	0.865	0.34
